Measured values: patent publication US20230226065A1, “ANTI-INFLAMMATORY COMPOSITIONS, METHODS AND USES THEREOF” (COMVITA LIMITED, priority 2020, published 2023)

What was measured:
[1] = tested on: MMP-9 secretion in differentiated THP-1 cells; test: LPS induced MMP-9 secretion in differentiated THP-1 cells (ELISA); assay type: cell-based, human; conditions: 6 μM Azithromycin positive control; LPS 1 μg/mL; P=0.00
Protocol: THP-1 cells (ATCC, ATCTIB202) were grown in RPMI-1640 (Gibco, 11875093)+0.05 mM 2-mercaptoethanol+10% fetal calf serum (FCS)+1% pen-strep. For experiments, the cells were cultured in RPMI-1640 medium with 10% fetal bovine serum (FBS) only.
THP-1 monocyte cells were seeded at a density of 2.5×10^5 cells/ml in 96-well plates and differentiated into macrophages using 10 ng/ml of phorbol 12-myristate 13-acetate (PMA) (Bergin et al) (Sigma, P1585-1MG, Lot #SLBX889, 100% purity) for 72 hours. PMA media was then removed from the differentiated THP-1 cells, the cells were then washed once in RPMI-1640 media and then left to rest for 5 hours.
The differentiated THP-1 cells were stimulated with LPS from E. coli 055:B5 (Sigma, L6529; Lot #037K4068). LPS tested at a concentration of 1 μg/ml (Kong et al). […] After 24 hours, the cell culture media was collected and measured for MMP-9 concentration using MMP-9 ELISA (R&D systems, RDSDY91105 lot #P239459 and DY008 Lot #P239900). […]
In order to better capture the variability, each treatment was done at least in triplicate in each plate (2 plates). Media from the triplicate wells were pooled and analysed in duplicates for the MMP-9 ELISA. […]

THP-1 cells = test: WST-1 cell viability assay, LPS-stimulated THP-1 cells; assay type: cell-based; conditions: 10 μg/mL dexamethasone; LPS co-stimulation 18 hours
Protocol: Human monocytic THP-1 cells were seeded in 96-well tissue-culture treated plates at a density of 50,000 cells/well in growth media (RPMI media supplemented with 10% fetal bovine serum, 2 mM L-glutamine and penicillin-streptomycin) overnight. […] Control wells were treated with hydrogen peroxide (0, 0.5, 1, and 2 mM) for 1 hour prior to addition of WST-1 reagent (Roche, NZ). WST-1 reagent was added to all wells at the end of the 18 hour incubation period, and absorbance readings were subsequently measured 30 min and 1 h and 10 mins after WST-1 addition. Cell viability expressed the percent change from the LPS-stimulated PBS control.

[2] = tested on: COX-2 protein expression in THP-1 cells; test: LPS-induced COX-2 protein expression in THP-1 cells (Western blot); assay type: cell-based, human
Protocol: THP-1 cells were seeded in 12-well tissue-culture treated plates at a density of 500,000 cells/well in growth media overnight. […] Cells were washed with cold PBS and lysed in RIPA buffer containing protease inhibitors (Sigma P2714) for 15 minutes on ice. Debris was pelleted by centrifugation at 14,000×g for 15 min and lysate supernatants were frozen at −80° C. for later analysis by western blot.
Western blots for semi-quantitative COX-2 (Abcam ab188183) protein expression were conducted on THP-1 monocyte cells lysed with RIPA buffer containing protease inhibitors. A total of 10 μg protein was loaded onto precast 10% acrylamide gels (BioRad, NZ) then separated by electrophoresis at 120 V at room temperature. […] The membranes were then incubated with the primary antibody that correspond to the protein of interest for 1 h. […] Western blot images were captured with an Amersham™ Imager 600 (GE Healthcare, Chicago, Ill., USA) and densitometry measurement of protein bands was analysed with the accompanying image analysis software.
For analysis of Western blots, densitometry measurements from the proteins of interest were normalised to the densitometry of p-actin for each sample. […] The significance level was set at p≤0.05.

active MMP-9 = test: Gelatin gel zymography, active MMP-9 band; assay type: biochemical; conditions: NNGH 2.6 μM in developing buffer; active MMP-9
Protocol: Novex™ 10% Zymogram Plus (Gelatin) Protein Gels (15 wells) were purchased from Thermo Fisher Scientific Inc. (Auckland, New Zealand). All chemicals required for the zymogram analysis were also purchased from Thermo Fisher, these include Novex™ Sharp Pre-stained Protein Standard, Novex Tris-Glycine SDS sample buffer, Novex Tris-Glycine SDS running buffer, Novex Zymogram renaturing buffer and Novex Zymogram developing buffer. […] Gelatin gel zymography was performed as an independent technique to confirm the inhibition of MMP-9 from 3,6,7-trimethyllumazine. This technique uses a non-reducing SDS-PAGE (sodium dodecyl sulfate polyacrylamide gel electrophoresis) gel embedded with gelatin. Proteins are migrated and separated during electrophoresis. The SDS is removed after electrophoresis and the gel is then incubated with essential cofactors required for enzymatic activity. The embedded gelatin can be digested by MMP-9, resulting in clear bands on a dark blue background after staining with Coomassie blue dyes. The gelatinase activity is represented by band densitometry, which can be assessed with image analysis software. […]
After incubation, the gelatin gel was rinsed with water for three times (5 min each) under gentle agitation. […] MMP-9 activities were analysed using densitometry on ImageJ Version 1.52a. […]

recombinant MMP-9 enzyme [3] = biological target: T1, recombinant MMP-9 enzyme (Homo sapiens, UniProt P14780); test: MMP-9 inhibitor screening assay (colorimetric); assay type: biochemical; conditions: NNGH at 1.3 μM
T1 construct: purchased Abcam ab139449
Description: The MMP-9 inhibitor screening assay (colorimetric) kits were purchased from Abcam (Melbourne, Australia). The kit contains the recombinant MMP-9 enzyme, MMP inhibitor NNGH, MMP chromogenic substrate, the colorimetric assay buffer and 96-well clear microplate.
The colorimetric kit uses a thiopeptide as a chromogenic substrate (Ac-PLG-[2-mercapto-4-methyl-pentanoyl]-LG-OC2H5), which can be hydrolysed by MMPs to produce a sulfhydryl group. This intermediate product further reacts with DTNB [5,5′-dithiobis(2-nitrobenzoic acid), Ellman's reagent] to form 2-nitro-5-thiobenzoic acid, which can be detected by absorbance at 412 nm. The change in absorbance was measured using the SpectraMax iD3 multi-mode microplate reader (Molecular Devices, San Jose, USA). The assays are performed on a convenient 96-wells microplate with a final reaction volume of 100 μL. Prior to the assay, all testing samples and inhibitor controls were incubated with MMP-9 for 60 min at 37° C. […] The absorbance was measured at 1 min intervals during the first 20 min, then 10 min intervals till the end of assay.
Recombinant MMP-9 and the chromogenic substrate were used as the positive control to represent 100% enzyme activity. […] A range of 3,6,7-trimethyllumazine concentrations were diluted with the colorimetric assay buffer to measure the absorbance of the reaction product.

recombinant MMP-9 enzyme [4] = biological target: T1, recombinant MMP-9 enzyme; test: MMP-9 inhibitor screening assay (fluorometric); assay type: biochemical; conditions: NNGH inhibitor control
Protocol: The MMP-9 inhibitor screening assay (fluorometric) kits were purchased from Abcam (Melbourne, Australia). The fluorometric kit contains the recombinant MMP-9 enzyme, MMP inhibitor NNGH (N-isobutyl-N-[4-methoxyphenylsulfonyl]glycyl hydroxamic acid), MMP fluorogenic substrate solubilised in DMSO, the fluorometric assay buffer and 96-well clear microplate.
Inhibitory activity on MMP-9 was assessed using the commercial MMP-9 inhibitor screening assay kit. MMP-9 activity was expressed as a change in fluorescence intensity measured using SpectraMax iD3 multi-mode microplate reader (Molecular Devices, San Jose, USA).
The assay employs a FRET-tagged (fluorescence resonance energy transfer) substrate, which can be hydrolysed by MMP-9 at a specific site (Abcam, 2018). The cleavage of the FRET substrate releases the quenched fluorescent Mca (7-methoxycoumarin-4-yl)-acetyl group (Abcam, 2018). The kit employs a quenched fluorogenic substrate Mca-Pro-Leu-Gly-Leu-Dpa-Ala-Arg-NH2, where the Mca fluorescence is quenched by Dpa until cleavage by MMPs. The amount of fluorescent product yielded by MMP-9 can be detected fluorometrically and it is proportional to the enzyme activity. Fluorescence were measured at ex320 nm-em395 nm to minimise fluorescence interference from 3,6,7-trimethyllumazine at ex330 nm-em470 nm. […]

T1 sequence (P14780 94-707): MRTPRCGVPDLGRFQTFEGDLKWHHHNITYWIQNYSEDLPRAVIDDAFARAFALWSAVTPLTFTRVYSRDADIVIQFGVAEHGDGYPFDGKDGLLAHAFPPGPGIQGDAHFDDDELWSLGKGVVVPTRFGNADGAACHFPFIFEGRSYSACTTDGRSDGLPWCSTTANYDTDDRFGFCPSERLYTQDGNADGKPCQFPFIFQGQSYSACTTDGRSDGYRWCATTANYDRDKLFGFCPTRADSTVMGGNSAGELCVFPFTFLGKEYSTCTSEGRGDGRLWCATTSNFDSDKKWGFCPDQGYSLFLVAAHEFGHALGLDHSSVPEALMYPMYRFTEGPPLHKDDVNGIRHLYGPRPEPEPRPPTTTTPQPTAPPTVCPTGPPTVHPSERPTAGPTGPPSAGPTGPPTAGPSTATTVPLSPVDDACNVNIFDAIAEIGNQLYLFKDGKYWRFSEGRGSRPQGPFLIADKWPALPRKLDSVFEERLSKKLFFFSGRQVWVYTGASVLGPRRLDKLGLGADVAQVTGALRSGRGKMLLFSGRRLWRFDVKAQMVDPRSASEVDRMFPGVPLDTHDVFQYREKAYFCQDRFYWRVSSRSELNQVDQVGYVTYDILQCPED

Which “effect on MMP-9 secretion” value [1] does the source give for `CC[C@H]1OC(=O)[C@H](C)[C@@H](O[C@H]2C[C@@](C)(OC)[C@@H](O)[C@H](C)O2)[C@H](C)[C@@H](O[C@@H]2O[C@H](C)C[C@H](N(C)C)[C@H]2O)[C@](C)(O)C[C@@H](C)CN(C)[C@H](C)[C@@H](O)[C@]1(C)O` [Azithromycin] here?
Its value is “inhibits MMP-9 secretion”.

How did the “cell death (WST-1 cell viability)” value (THP-1 cells) turn out when `C[C@@H]1C[C@H]2[C@@H]3CCC4=CC(=O)C=C[C@]4(C)[C@@]3(F)[C@@H](O)C[C@]2(C)[C@@]1(O)C(=O)CO` [Dexamethasone, reference compound] was run?
Its value is “did not induce cell death”.

And the “COX-2 Relative expression (mean ± SEM)” value ([2]; 10 μg/mL, LPS 24 hours, LPS positive control 1.26 ± 0.11, n=6)?
Its value is 0.85 ± 0.07.

`COc1ccc2c(c1)c(CC(=O)O)c(C)n2C(=O)c1ccc(Cl)cc1` [Indomethacin, reference compound] was tested. Which “reduction of LPS-induced COX-2 expression” value ([2]; indomethacin 10 μmol/L) did it give?
Its value is “did not significantly reduce”.

For `COc1ccc(S(=O)(=O)N(CC(=O)NO)CC(C)C)cc1` [NNGH, N-isobutyl-N-[4-methoxyphenylsulfonyl]glycyl hydroxamic acid, reference compound], which “inhibition of gelatinase activity” value (active MMP-9) is on record?
The value was “completely inhibited”.

What about the “inhibition of MMP-9 activity” value (recombinant MMP-9 enzyme [3]) of the same compound?
Its value is “inhibited most of the MMP-9 activity”.

What about the “change in fluorescence (MMP-9 activity)” value (recombinant MMP-9 enzyme [4]) of the same compound?
Its value is “almost no change in fluorescence”.
